From the pKa sets of Baltruschat and Czodrowski (2020)

Details: acidic group

Question: For O=C1C=CC(=NO)C=C1, which pKa is on record?
Answer: 6.36

Question: With O=C(O)C1(O)CCCCCC1 as the molecule, how does the pKa read?
Answer: 4.04

Question: For O=C(Cc1ccccc1)c1cc[n+]([CH-]c2cccc([N+](=O)[O-])c2)cc1, which pKa is on record?
Answer: 11.6

Same assay, conditions: basic group

Question: For CCCCCCCCCCCCCCCC(=O)N[C@@H](Cc1c[nH]cn1)C(=O)[O-], which pKa is on record?
Answer: 6.2

Question: For Cc1nccc2c1[nH]c1ccccc12, which pKa is on record?
Answer: 6.55

Question: Which pKa does the source give for C1CCN(CCC[NH+]2CCCCC2)CC1 here?
Answer: 7.97

Question: For C#C[C@]1(O)C[C@H](C)N[C@@H]2CCCC[C@H]21, which pKa is on record?
Answer: 9.63

Question: Which pKa does the source give for CCCCNCCNCCCC here?
Answer: 10.2

Question: With Cc1ccc(/N=C/N(C)C)cc1 as the molecule, how does the pKa read?
Answer: 9.21

Question: With CCN(CC)CC(=O)NC1c2ccccc2-c2ccccc21 as the molecule, how does the pKa read?
Answer: 7.98

Question: With c1ccc(-c2cc3cccnc3c3ncccc23)cc1 as the molecule, how does the pKa read?
Answer: 4.72

Question: With CCN1[C@@H](C)[C@@H]1C (stereo partly specified) as the molecule, how does the pKa read?
Answer: 9.41

Question: With CCCC(N)C(=O)[O-] (stereo unspecified) as the molecule, how does the pKa read?
Answer: 9.86

Question: For C[NH2+]CCN(C)CCN, which pKa is on record?
Answer: 9.68

Question: Which pKa does the source give for Cc1ccccc1C(=NCCCCN(C)C)c1ccccc1C here?
Answer: 8.8

Question: With C=C(C)C(=O)OCCN(C)CCCC as the molecule, how does the pKa read?
Answer: 8.27

Question: For CCOC(=O)c1cc(-c2ccccc2)nnc1NCC[NH+]1CCOCC1, which pKa is on record?
Answer: 1.5

Question: For O=C(CN1CCOCC1)c1ccccc1, which pKa is on record?
Answer: 5.97

Question: With CSc1ccc(N)cc1 as the molecule, how does the pKa read?
Answer: 4.4

Question: For Cc1cnncc1C, which pKa is on record?
Answer: 4.13

Question: Which pKa does the source give for Cc1ccc(C)nn1 here?
Answer: 3.99

Question: For [NH3+]CCCCc1cccnc1, which pKa is on record?
Answer: 5.52

Question: For O=C(CN1CCCCC1)Nc1ccccc1, which pKa is on record?
Answer: 7.85

Question: Which pKa does the source give for Cc1nc([O-])n[nH]1 here?
Answer: 9.43

Question: With COCCCCNc1ccccc1 as the molecule, how does the pKa read?
Answer: 4.6

Question: Which pKa does the source give for Nc1ncc(Sc2ccccc2)s1 here?
Answer: 4.16

Question: With NC1CC1 as the molecule, how does the pKa read?
Answer: 9.1

Question: With CO/N=C(\C)CC(C)(C)NCC[NH2+]C(C)(C)C/C(C)=N/O as the molecule, how does the pKa read?
Answer: 6.28

Question: Which pKa does the source give for COc1ccnc2c1ccc1c(OC)ccnc12 here?
Answer: 6.45

Question: For C[C@H]1CC[C@H]2[C@H](C)CC[C@@H](C(=O)[O-])N2C1, which pKa is on record?
Answer: 10.8

Question: Which pKa does the source give for c1c[nH+]c(Cc2nc(Cc3c[nH]c[nH+]3)c[nH]2)[nH]1 here?
Answer: 3.94

Question: For O=C([O-])[C@@H]1Cc2[nH]cnc2CN1, which pKa is on record?
Answer: 8.58

Question: Which pKa does the source give for CNC[C@H](O)c1cccc(O)c1 here?
Answer: 8.77

Question: For O=C(CCCCN1CCOCC1)c1ccccc1, which pKa is on record?
Answer: 7.5

Question: With Cc1cccc(N)c1C as the molecule, how does the pKa read?
Answer: 4.56

Question: For CC1(C)S[C@H]2C(C(=O)[O-])[NH+]=C(CCCC(N)C(=O)[O-])N2C1C(=O)[O-] (stereo partly specified), which pKa is on record?
Answer: 7.6

Question: Which pKa does the source give for CC(C)(S)C(C(=O)[O-])n1ccnc1Cc1ccccc1 (stereo unspecified) here?
Answer: 7

Question: For CN(C)CCC/N=C(\c1ccccc1)c1ccccc1Cl, which pKa is on record?
Answer: 9

Question: With Cn1c(=O)c2[nH]c[nH+]c2n(C)c1=O as the molecule, how does the pKa read?
Answer: 0.7

Question: For CCC(=O)C1(c2cccc(O)c2)CCN(C)CC1, which pKa is on record?
Answer: 8.67

Question: Which pKa does the source give for CCOP(=O)(CN1CCOCC1)OCC here?
Answer: 4

Question: Which pKa does the source give for [S-]c1ncnc2nccnc12 here?
Answer: 6.81

Question: Which pKa does the source give for Cc1ccnc(C)c1 here?
Answer: 6.77

Question: Which pKa does the source give for C[C@H]([NH3+])C(=O)N[C@@H](Cc1c[nH]cn1)C(=O)[O-] here?
Answer: 6.76

Question: With c1ccc(C2=NSC(N3CCOCC3)=NS2)cc1 as the molecule, how does the pKa read?
Answer: 8.33

Question: Which pKa does the source give for Cc1ccc(C)c(C(=N)c2ccccc2)c1 here?
Answer: 6.79

Question: For c1ccc(-c2ncc[nH]2)cc1, which pKa is on record?
Answer: 6.39

Question: Which pKa does the source give for Cc1cc(C)n(-c2cccc[nH+]2)n1 here?
Answer: -2.4

Question: With NCCC[n+]1cc(Br)c2ccccc2c1 as the molecule, how does the pKa read?
Answer: 9.53

Question: Which pKa does the source give for OCCCCc1ccncc1 here?
Answer: 6.01

Question: With Cc1cnc2c(c1)c(C)c(C)c1cccnc12 as the molecule, how does the pKa read?
Answer: 5.34

Question: With OCCC[C@H]1CC[C@@H]2CCCN12 as the molecule, how does the pKa read?
Answer: 11.2

Question: With Nc1nnnn1-c1cccc([N+](=O)[O-])c1 as the molecule, how does the pKa read?
Answer: 0.47

Question: Which pKa does the source give for O=C([O-])c1ccc(O)c2ncccc12 here?
Answer: 4.8

Question: With C[N+](C)(C)CCN as the molecule, how does the pKa read?
Answer: 7.34

Question: With Nc1ccnc(-c2cc(Cl)ccn2)c1 as the molecule, how does the pKa read?
Answer: 7.4

Question: For CSc1cnc2ccccc2n1, which pKa is on record?
Answer: 0.26

Question: For Nc1ccc(C[NH3+])cc1, which pKa is on record?
Answer: 4.16

Question: Which pKa does the source give for CCc1ccc(O)c(CN(C)C)c1 here?
Answer: 8.51

Question: Which pKa does the source give for COc1ncnc2nccnc12 here?
Answer: 1.04

Question: With N[C@@H]1CCC[C@H](O)C1 as the molecule, how does the pKa read?
Answer: 10.1

Question: Which pKa does the source give for CN(C)N(C)C here?
Answer: 6.19

Question: For C[n+]1c(N)ccnc1[O-], which pKa is on record?
Answer: 7.38

Question: For CC(C)(S)CN, which pKa is on record?
Answer: 8.48

Question: Which pKa does the source give for Nc1cccc2ccncc12 here?
Answer: 6.06

Question: For [O-]c1cc2ccccc2nn1, which pKa is on record?
Answer: 8.61

Question: Which pKa does the source give for CCN1CCCCC1 here?
Answer: 10.7

Question: For CC[C@]12CCCN3CC[C@@]4(c5cccc(OC)c5N[C@H]4CC1)[C@@H]32, which pKa is on record?
Answer: 8.46

Question: For Cc1cccc(C)c1N, which pKa is on record?
Answer: 3.84

Question: With COc1ccc(C(O)CN)cc1 (stereo unspecified) as the molecule, how does the pKa read?
Answer: 9.02

Question: For C=CCSS/C(CCO)=C(/C)N(C=O)Cc1cnc(C)nc1N, which pKa is on record?
Answer: 5.65

Question: Which pKa does the source give for CCN1CCC[C@@H]1CNC(=O)c1c([O-])c(Cl)cc(Cl)c1OC here?
Answer: 9.12

Question: Which pKa does the source give for [S-]c1ncc2nccnc2n1 here?
Answer: 6.52

Question: With Nc1ncc2ncn([C@H]3O[C@@H](CO)[C@H](O)[C@@H]3O)c2n1 as the molecule, how does the pKa read?
Answer: 3.4

Question: For Cc1cc(-n2[nH+]c(C)cc2C)[nH]n1, which pKa is on record?
Answer: -2.4

Question: For COc1nccc2ccccc12, which pKa is on record?
Answer: 3.05

Question: For C/C(=N/c1ccccc1O)c1ccccc1O, which pKa is on record?
Answer: 5.14

Question: With Nc1c2[nH]cnc2nc[n+]1[O-] as the molecule, how does the pKa read?
Answer: 2.6

Question: Which pKa does the source give for CC1=NCCc2c1[nH]c1ccc([N+](=O)[O-])cc21 here?
Answer: 6.37

Question: For CCOC(=O)c1cnc2cc([N+](=O)[O-])ccc2c1[O-], which pKa is on record?
Answer: 9.32

Question: Which pKa does the source give for Oc1ccc(/C=N/c2ncc3nc[nH]c3n2)cc1 here?
Answer: 3.27

Question: For Nc1nc(N)c2ccccc2n1, which pKa is on record?
Answer: 8.12

Question: With O=C(Nc1cccnc1)c1ccccc1 as the molecule, how does the pKa read?
Answer: 3.8

Question: For Fc1ccccn1, which pKa is on record?
Answer: -0.44

Question: For CN1CCCCCC1, which pKa is on record?
Answer: 11

Question: Which pKa does the source give for CCCCCCCCN(CC(C)O)CC(O)CC (stereo unspecified) here?
Answer: 8.1
